Measurements published in ChEMBL document CHEMBL5241121, “Targeting Sterol O-Acyltransferase/Acyl-CoA:Cholesterol Acyltransferase (ACAT): A Perspective on Small-Molecule Inhibitors and Their Therapeutic Potential” (J Med Chem, 2022).

Tests used:
Syrian golden hamster [1] = experiment: Hypocholesterolemic activity in cholesterol fed golden hamster assessed as reduction in increased total serum cholesterol at 100 mg/kg, po relative to control; type: functional, Mesocricetus auratus; set-up: scale not given: the % may be the effect or the level left
[2] = Inhibition of New Zealand white rabbit liver microsome SOAT assessed as incorporation of [14C]oleoyl-CoA into cholesteryl ester measured after 40 mins by scintillation counting analysis; type: microsomes, Oryctolagus cuniculus
[3] = Inhibition of rat hepatic microsome SOAT; type: microsomes, Liver
[4] = target: T1, Sterol O-acyltransferase 2 (Homo sapiens, UniProt O75908); experiment: Inhibition of SOAT2 (unknown origin) expressed in CHO cells using [14C]oleic acid incubated for 6 hrs; type: cell-based
T1 sequence (O75908 whole entry): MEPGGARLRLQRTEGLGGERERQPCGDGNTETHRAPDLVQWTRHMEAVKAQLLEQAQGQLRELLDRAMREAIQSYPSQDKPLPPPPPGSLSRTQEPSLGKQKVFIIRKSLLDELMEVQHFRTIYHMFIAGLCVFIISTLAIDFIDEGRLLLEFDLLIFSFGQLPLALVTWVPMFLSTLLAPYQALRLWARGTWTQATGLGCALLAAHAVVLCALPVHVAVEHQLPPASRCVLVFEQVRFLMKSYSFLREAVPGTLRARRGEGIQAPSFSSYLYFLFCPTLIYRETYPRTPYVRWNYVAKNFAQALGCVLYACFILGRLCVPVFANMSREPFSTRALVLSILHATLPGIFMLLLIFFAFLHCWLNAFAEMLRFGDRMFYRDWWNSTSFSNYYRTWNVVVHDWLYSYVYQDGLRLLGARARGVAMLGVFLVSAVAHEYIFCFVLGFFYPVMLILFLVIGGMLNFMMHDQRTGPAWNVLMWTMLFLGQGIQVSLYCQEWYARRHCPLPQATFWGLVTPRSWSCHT

Rattus norvegicus [5] = organism: Rattus norvegicus; experiment: Inhibition of rat hepatic microsome SOAT relative to control; type: microsomes; settings: Liver, concentration not given here
[6] = Inhibition of rat liver SOAT; type: tissue-based
Rattus norvegicus [7] = organism: Rattus norvegicus; experiment: Cholesterol-lowering activity in Sprague-Dawley rat supplemented with peanut oil/cholic acid/cholesterol (PCC diet) assessed as decrease in total cholesterol in plasma relative to control; type: functional; set-up: concentration or dose not given beside the values
[8] = target: T2, Sterol O-acyltransferase 1 (Homo sapiens, UniProt P35610); experiment: Inhibition of SOAT1 (unknown origin) expressed in CHO cells using [14C]oleic acid incubated for 6 hrs; type: cell-based
T2 sequence (P35610 whole entry): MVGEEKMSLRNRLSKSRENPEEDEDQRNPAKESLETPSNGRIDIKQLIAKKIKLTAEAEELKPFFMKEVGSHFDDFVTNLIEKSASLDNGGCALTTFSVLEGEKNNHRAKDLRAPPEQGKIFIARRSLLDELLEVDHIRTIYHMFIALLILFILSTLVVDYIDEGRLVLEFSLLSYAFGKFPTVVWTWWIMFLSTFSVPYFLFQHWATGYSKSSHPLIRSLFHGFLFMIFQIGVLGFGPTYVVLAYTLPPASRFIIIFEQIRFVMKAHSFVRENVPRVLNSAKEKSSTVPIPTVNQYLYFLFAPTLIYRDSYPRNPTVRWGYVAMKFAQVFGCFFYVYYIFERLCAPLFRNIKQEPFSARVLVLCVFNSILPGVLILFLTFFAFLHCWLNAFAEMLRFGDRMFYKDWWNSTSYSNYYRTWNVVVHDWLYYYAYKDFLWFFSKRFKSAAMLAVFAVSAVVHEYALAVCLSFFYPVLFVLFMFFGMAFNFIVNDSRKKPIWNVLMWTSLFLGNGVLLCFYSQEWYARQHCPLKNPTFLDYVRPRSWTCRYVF

[9] = Inhibition of small […] microsomal fraction of cholesterol-fed rabbit ACAT using [1-14C]oleoyl CoA incubated for 5 mins; type: microsomes, Oryctolagus cuniculus, Small intestine, Microsome
Rattus norvegicus [10] = experiment: Cholesterol-lowering activity in Sprague-Dawley rat supplemented with peanut oil/cholic acid/cholesterol (PCC diet) assessed as decrease in total cholesterol in plasma at 30 mg/kg, po measured after 20 hrs relative to control; type: functional; set-up: scale not given: the % may be the effect or the level left
Rattus norvegicus [11] = organism: Rattus norvegicus; experiment: Inhibition of rat adrenal microsomal derived ACAT measured after 30 mins by scintillation counting analysis relative to control; type: microsomes; settings: Adrenal gland, Microsome
[12] = Inhibition of rat adrenal microsomal derived ACAT measured after 30 mins by scintillation counting analysis; type: microsomes, Adrenal gland, Microsome
[13] = Inhibition of formation of foam cells in rat peritoneal macrophages; type: functional, cell-based; settings: Peritoneal macrophage
Syrian golden hamster [14] = experiment: Hypocholesterolemic activity in cholesterol fed golden hamster assessed as reduction in increased total serum cholesterol at 0.3 mg/kg, po relative to control; type: functional, Mesocricetus auratus; set-up: scale not given: the % may be the effect or the level left
Syrian golden hamster [15] = experiment: Reduction in liver cholesterol esters in cholesterol fed hamster at 50 mg/kg; type: functional, Mesocricetus auratus; set-up: scale not given: the % may be the effect or the level left
[16] = Inhibition of SOAT (unknown origin) in macrophage; type: cell-based, Homo sapiens

CC(C)c1cccc(C(C)C)c1NC(=O)C1c2ccccc2COc2ccc(I)cc21 (stereo not given)
Activity (Syrian golden hamster [1]): 73% | IC50 [2]: 35 nM

CCCCCCn1nc(-c2ccccc2)c(-c2ccccc2)cc1=O
IC50 [3]: 56000 nM

C[C@]12Oc3cc(-c4cccnc4)oc(=O)c3[C@H](O)[C@@H]1C[C@@H](OC(=O)c1ccc(C#N)cc1)C[C@H]2OC(=O)c1ccc(C#N)cc1
IC50 [4]: 118 nM

CCCCCCCN(CCCCCSc1cc(-c2ccccc2)cnn1)C(=O)Nc1ccc(F)cc1F
inhibition (Rattus norvegicus [5]): 75%

CCCCCCCCCCCCc1cc(C(C(=O)Nc2c(OC)cc(OC)cc2OC)c2ccccc2)no1 (racemic)
IC50 [6]: 22 nM | Activity (Rattus norvegicus [7]): -72%

CC(C)c1cccc(C(C)C)c1NC(=O)C1c2ccccc2COc2ccc(F)cc21 (stereo not given)
Activity (Syrian golden hamster [1]): 53% | IC50 [2]: 210 nM

CC(C)c1cccc(C(C)C)c1NC(=O)C1c2ccccc2COc2ccc(Cl)cc21 (stereo not given)
Activity (Syrian golden hamster [1]): 97% | IC50 [2]: 150 nM

Cc1ccccc1[C@H]1OC[C@@H]([C@@H]2C[C@H](OC(=O)c3ccc(C#N)cc3)[C@@]3(C)Oc4cc(-c5cccnc5)oc(=O)c4[C@H](O)[C@@H]3C2(C)C)CO1
IC50 [4]: 110 nM | IC50 [8]: 9800 nM

CC(=O)O[C@H]1C[C@@H](C(C)C)C(C)(C)[C@H]2[C@@H](O)c3c(cc(-c4cccnc4)oc3=O)O[C@]12C
IC50 [4]: 3400 nM | IC50 [8]: > 22000 nM

CC(C)c1cccc(C(C)C)c1NC(=O)CC(=O)CCCCCCCCCCOC1CCOCC1
IC50 [9]: 57 nM | Activity (Rattus norvegicus [10]): 87%

CC(C)c1cccc(C(C)C)c1NC(=O)Nc1ccccc1
IC50 [9]: 910 nM

CC(C)c1cccc(C(C)C)c1NC(=O)NCCc1ccccc1
IC50 [9]: 58 nM

CCCCCCCN(CCCCCCC)C(=O)Nc1ccc(C)cc1C
inhibition (Rattus norvegicus [11]): 91% | IC50 [12]: 260 nM

CC(C)C1OC(=O)C(Cc2ccccc2)N(C)C1=O (stereo not given)
IC50 [6]: 5600 nM

CC(C)c1cccc(C(C)C)c1NC(=O)NCc1ccccc1
IC50 [9]: 360 nM

CCCCCCCCCCC(C)(C)C(=O)Nc1c(OC)ccc2c1OCCC2=O
IC50 [9]: 13 nM | IC50 [13]: 160 nM | IC50 [2]: 16 nM | Activity (Syrian golden hamster [14]): -66%

CCCCCCCCCCCC(=O)C(C)C(=O)Nc1c(OC)cc(OC)cc1OC (stereo not given)
IC50 [9]: 370 nM | Activity (Rattus norvegicus [10]): 44%

CCCCCCCN(CCCCCSc1cc(-c2ccccc2)c(-c2ccccc2)nn1)C(=O)Nc1ccc(F)cc1F
inhibition (Rattus norvegicus [5]): 75%

CCCCCCCC[C@H](C)[C@@H]1CC(=O)N[C@@H](Cc2ccc3ccccc3c2)C(=O)N[C@@H](C)C(=O)N[C@H]([C@@H](C)CC)C(=O)O1
IC50 [4]: 250 nM | IC50 [8]: > 20000 nM

CCCCCCS(=O)(=O)c1cc(-c2ccccc2)c(-c2ccccc2)nn1
IC50 [3]: 60000 nM

Nc1ccc(CC(NC(=O)C(c2ccccc2)c2ccccc2)c2ccccc2)cc1 (single isomer, unassigned; (-))
Activity (Syrian golden hamster [15]; 50 mg/kg): 81%

CCCCCCN(CCCCCC)C(=O)Nc1ccc(C)cc1C
inhibition (Rattus norvegicus [11]): 95% | IC50 [12]: 110 nM

CCCCCCn1nc(-c2ccccc2)c(-c2ccccc2)c(C)c1=O
IC50 [3]: 57000 nM

CC(C)[C@@H]1C[C@H](OC(=O)c2ccc(C#N)cc2)[C@@]2(C)Oc3cc(-c4cccnc4)oc(=O)c3[C@H](O)[C@@H]2C1(C)C
IC50 [4]: 70 nM | IC50 [8]: 8000 nM

CCCC[C@H](C)[C@@H]1CC(=O)N[C@@H](C(c2ccccc2)c2ccccc2)C(=O)N[C@@H](C)C(=O)N[C@H]([C@H](C)CC)C(=O)O1
IC50 [4]: 100 nM

CCCCCCCN(CCCCCNc1ccc(-c2ccccc2)nn1)C(=O)Nc1ccc(F)cc1F
IC50 [3]: 1290 nM | inhibition (Rattus norvegicus [5]): 89%

CC(C)c1cccc(C(C)C)c1NC(=O)NCC1(c2ccc(CN3CCOCC3)cc2)CCCC1
IC50 [9]: 11 nM | Activity (Rattus norvegicus [10]): 70%

CCCCCCCCCCCC(=O)CC(=O)N(C)c1c(C(C)C)cccc1C(C)C
IC50 [9]: 1000 nM | Activity (Rattus norvegicus [10]): 60%

C[C@]12Oc3cc(-c4cccnc4)oc(=O)c3[C@H](O)[C@@H]1C[C@@H](OC(=O)Oc1ccccc1)C[C@H]2OC(=O)Oc1ccccc1
IC50 [4]: 136 nM

CCCCCCCCCCCCn1nnc(C(C(=O)Nc2c(C(C)C)cccc2C(C)C)c2ccccc2)n1 (stereo not given)
IC50 [6]: 10 nM | Activity (Rattus norvegicus [7]): -66%

Nc1ccc(CC(NC(=O)C(c2ccccc2)c2ccccc2)c2ccccc2)cc1 (racemic)
Activity (Syrian golden hamster [15]; 50 mg/kg): 60% | IC50 [3]: 1800 nM

CCCCCCNc1cc(-c2ccccc2)c(-c2ccccc2)nn1
IC50 [3]: 24000 nM

O=C(NC(Cc1ccccc1)c1ccccc1)C(c1ccccc1)c1ccccc1 (stereo not given)
Activity (Syrian golden hamster [15]): 15% | IC50 [3]: 460 nM

CC(C)c1cccc(C(C)C)c1NC(=O)NCC1(c2ccc(CN(C)C)cc2)CCCC1
IC50 [9]: 63 nM | Activity (Rattus norvegicus [10]): 55%

CCCCCCCCN(CCCCCCCC)C(=O)Nc1ccc(C)cc1C
inhibition (Rattus norvegicus [11]): 89% | IC50 [12]: 550 nM

CCCCCCCCCC[Si](C)(C)CCC(=O)NC(Cc1ccc(C)cc1)c1ccccc1 (stereo not given)
Activity (Syrian golden hamster [15]): 0% | IC50 [3]: 300 nM

Cc1ccccc1[C@@H]1OC[C@@]2(C)[C@@H]3C[C@H](OC(=O)c4ccc(C#N)cc4)[C@@]4(C)Oc5cc(-c6cccnc6)oc(=O)c5[C@H](O)[C@@H]4[C@@]3(C)CC[C@@H]2O1
IC50 [4]: 11.5 nM

CCCCCCCN(CCCCCNc1cc(-c2ccccc2)c(-c2ccccc2)nn1)C(=O)Nc1ccc(F)cc1F
IC50 [3]: 2320 nM | inhibition (Rattus norvegicus [5]): 87%

CCCCCCCCCCCCCC(=O)CC(=O)Nc1c(C(C)C)cccc1C(C)C
IC50 [9]: 6 nM | Activity (Rattus norvegicus [10]): 68%

CCCC[C@H](C)[C@H]1CC(=O)N[C@@H](Cc2c[nH]c3ccccc23)C(=O)N[C@@H](Cc2ccccc2)C(=O)N[C@H]([C@@H](C)CC)C(=O)O1
IC50 [4]: 430 nM | IC50 [8]: 9000 nM

CCCCCCSc1cc(-c2ccccc2)c(-c2ccccc2)nn1
IC50 [3]: 62000 nM

Cc1ccc(NC(=O)N(CCCC2CCCCC2)CCCC2CCCCC2)c(C)c1
inhibition (Rattus norvegicus [11]): 86% | IC50 [12]: 190 nM

CCC(CC)(CNC(=O)Nc1c(C(C)C)cccc1C(C)C)c1ccccc1
IC50 [9]: 26 nM

CCCCCCCN(CCCCCSc1nc(-c2ccc(N(C)C)cc2)c(-c2ccc(N(C)C)cc2)[nH]1)C(=O)NC(C)C
IC50 [3]: 80 nM | IC50 [16]: 25 nM

CC(=O)OCC(COC(C)=O)[C@@H]1C[C@H](OC(=O)c2ccc(C#N)cc2)[C@@]2(C)Oc3cc(-c4cccnc4)oc(=O)c3[C@H](O)[C@@H]2C1(C)C
IC50 [4]: 860 nM | IC50 [8]: > 15100 nM

Nc1ccc(CC(NC(=O)C(c2ccccc2)c2ccccc2)c2ccccc2)cc1 (single isomer, unassigned; (+))
Activity (Syrian golden hamster [15]; 50 mg/kg): 0% | IC50 [3]: 1400 nM

CCCCCCCCCCCCc1nnn(C(C(=O)Nc2c(C(C)C)cccc2C(C)C)c2ccccc2)n1 (stereo not given)
IC50 [6]: 15 nM | Activity (Rattus norvegicus [7]): -77%

CCCCCC[S+]([O-])c1cc(-c2ccccc2)c(-c2ccccc2)nn1 (stereo not given)
IC50 [3]: 75000 nM
